Measurements reported in patent US11220509B2, “Substituted imidazo[1,2-c]pyrimidines as PRC2 inhibitors” (Mirati Therapeutics, Inc., priority 2018, dated 2022).
Read-outs that look alike come from different tables or passages of the source.

Experiments:
[1] = target: purified human, His-tagged PRC2 complex (Homo sapiens (Human), UniProt O75530); assay: Hot Spot HMT assay: inhibition of PRC2 enzymatic activity (transfer of tritiated methyl from SAM to core histone H3); format: biochemical; settings: 10 nM PRC2 complex, 0.05 mg/ml core histone H3, 1 uM 3H-SAM, 1 hr at 30° C.; read-out: IC50, Inhibition of PRC2-mediated Enzymatic Activity
Chain of purified human, His-tagged PRC2 complex (Q15910 whole entry): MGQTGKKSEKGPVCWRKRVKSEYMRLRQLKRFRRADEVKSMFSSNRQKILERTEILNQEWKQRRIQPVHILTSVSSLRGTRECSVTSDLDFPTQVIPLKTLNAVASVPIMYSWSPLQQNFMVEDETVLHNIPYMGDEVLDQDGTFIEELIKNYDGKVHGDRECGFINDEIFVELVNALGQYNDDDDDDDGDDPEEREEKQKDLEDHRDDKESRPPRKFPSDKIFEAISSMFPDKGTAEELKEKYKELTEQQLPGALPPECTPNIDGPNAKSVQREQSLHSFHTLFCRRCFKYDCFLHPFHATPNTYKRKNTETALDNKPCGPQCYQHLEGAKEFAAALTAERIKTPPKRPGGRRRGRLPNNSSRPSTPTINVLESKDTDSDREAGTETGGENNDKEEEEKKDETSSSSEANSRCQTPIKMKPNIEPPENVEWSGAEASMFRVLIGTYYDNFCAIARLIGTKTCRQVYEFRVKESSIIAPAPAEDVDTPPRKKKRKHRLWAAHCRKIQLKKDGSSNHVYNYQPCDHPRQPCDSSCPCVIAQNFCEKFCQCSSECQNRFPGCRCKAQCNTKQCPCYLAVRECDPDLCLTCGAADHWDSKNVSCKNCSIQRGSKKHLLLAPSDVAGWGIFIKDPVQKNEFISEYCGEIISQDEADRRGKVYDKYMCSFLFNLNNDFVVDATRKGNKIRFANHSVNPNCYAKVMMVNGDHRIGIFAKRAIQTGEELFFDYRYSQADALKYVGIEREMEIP
Chain of purified human, His-tagged PRC2 complex (O75530 whole entry): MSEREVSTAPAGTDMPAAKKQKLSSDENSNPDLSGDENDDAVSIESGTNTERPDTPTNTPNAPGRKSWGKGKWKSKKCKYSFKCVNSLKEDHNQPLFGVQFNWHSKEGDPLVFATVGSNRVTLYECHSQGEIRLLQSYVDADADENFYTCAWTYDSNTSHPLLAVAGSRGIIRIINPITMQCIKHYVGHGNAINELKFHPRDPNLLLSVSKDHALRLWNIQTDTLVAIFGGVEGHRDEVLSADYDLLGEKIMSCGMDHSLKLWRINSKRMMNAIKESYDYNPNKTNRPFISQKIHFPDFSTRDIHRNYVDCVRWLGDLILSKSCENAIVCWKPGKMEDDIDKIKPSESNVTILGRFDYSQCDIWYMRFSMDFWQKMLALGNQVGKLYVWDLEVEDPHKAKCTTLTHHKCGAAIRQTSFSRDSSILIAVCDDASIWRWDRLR
Chain of purified human, His-tagged PRC2 complex (Q15022 whole entry partner): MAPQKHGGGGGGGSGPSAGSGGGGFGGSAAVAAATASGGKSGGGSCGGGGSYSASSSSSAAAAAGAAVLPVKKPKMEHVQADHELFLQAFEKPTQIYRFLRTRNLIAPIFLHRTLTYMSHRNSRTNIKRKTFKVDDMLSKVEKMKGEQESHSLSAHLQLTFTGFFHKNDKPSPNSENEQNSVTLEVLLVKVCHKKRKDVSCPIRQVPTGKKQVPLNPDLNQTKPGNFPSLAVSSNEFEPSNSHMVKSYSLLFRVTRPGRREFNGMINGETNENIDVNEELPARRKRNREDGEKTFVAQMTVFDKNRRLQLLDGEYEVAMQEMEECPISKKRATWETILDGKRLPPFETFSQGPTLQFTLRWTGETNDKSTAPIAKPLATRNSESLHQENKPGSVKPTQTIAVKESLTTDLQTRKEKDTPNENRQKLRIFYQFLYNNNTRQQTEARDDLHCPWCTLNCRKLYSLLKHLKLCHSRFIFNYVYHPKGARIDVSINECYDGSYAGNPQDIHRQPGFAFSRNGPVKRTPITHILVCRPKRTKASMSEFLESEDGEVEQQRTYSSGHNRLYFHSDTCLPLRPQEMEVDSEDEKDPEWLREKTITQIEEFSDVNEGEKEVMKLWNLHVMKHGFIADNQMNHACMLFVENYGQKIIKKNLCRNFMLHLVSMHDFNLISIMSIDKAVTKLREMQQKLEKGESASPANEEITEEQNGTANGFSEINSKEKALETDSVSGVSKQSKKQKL
Chain of purified human, His-tagged PRC2 complex (Q6ZN18 whole entry partner): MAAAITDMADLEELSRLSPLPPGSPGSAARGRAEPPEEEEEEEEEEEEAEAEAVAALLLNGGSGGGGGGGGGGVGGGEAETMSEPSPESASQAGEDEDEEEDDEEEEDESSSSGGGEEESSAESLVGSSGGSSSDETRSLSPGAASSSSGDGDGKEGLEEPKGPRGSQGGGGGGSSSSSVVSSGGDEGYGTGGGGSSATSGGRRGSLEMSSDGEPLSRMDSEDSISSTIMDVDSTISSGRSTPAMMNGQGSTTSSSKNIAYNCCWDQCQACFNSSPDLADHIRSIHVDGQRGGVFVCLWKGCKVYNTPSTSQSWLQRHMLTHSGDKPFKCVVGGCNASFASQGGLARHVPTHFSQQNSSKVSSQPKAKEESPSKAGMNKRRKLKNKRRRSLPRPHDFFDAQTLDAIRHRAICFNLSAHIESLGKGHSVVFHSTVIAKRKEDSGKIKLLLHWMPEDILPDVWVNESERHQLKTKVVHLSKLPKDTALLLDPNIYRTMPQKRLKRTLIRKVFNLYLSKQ
Chain of purified human, His-tagged PRC2 complex (Q09028 whole entry partner): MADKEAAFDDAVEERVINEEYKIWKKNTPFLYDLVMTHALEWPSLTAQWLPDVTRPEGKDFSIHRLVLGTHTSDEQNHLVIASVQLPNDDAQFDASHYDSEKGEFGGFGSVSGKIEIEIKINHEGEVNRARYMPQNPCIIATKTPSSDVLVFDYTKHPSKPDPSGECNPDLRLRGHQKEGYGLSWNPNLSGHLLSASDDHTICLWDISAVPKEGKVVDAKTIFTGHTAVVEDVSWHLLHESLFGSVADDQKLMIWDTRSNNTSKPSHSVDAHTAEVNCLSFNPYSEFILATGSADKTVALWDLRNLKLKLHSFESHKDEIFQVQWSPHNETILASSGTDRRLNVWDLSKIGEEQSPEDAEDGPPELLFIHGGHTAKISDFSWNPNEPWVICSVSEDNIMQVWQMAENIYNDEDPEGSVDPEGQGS
From the text: The assay uses purified human, His-tagged PRC2 complex, including N-terminal His-tagged EZH2 enzyme. N-terminal Flag-tagged embryonic ectoderm development protein (EED), N-terminal His-tagged suppressor of zeste 12 (SUZ12), N-terminal His-tagged AEBP2, and N-terminal His-tagged RbAp48. In this assay, the transfer of the tritiated methyl group from radiolabeled S-adenosyl methionine (SAM) to purified core histone protein by EZH2 is quantitated after filtration to determine the activity of the core PRC2 complex in the presence and absence of compound.
The initial starting concentration for the serial dilutions of each compound was 1.0 μM. […] SAH (S-(5-adenosyl)-L-homocysteine) was used as a positive control for assay validation.
An aliquot of each serial dilution of test compound was added to deep 384 well plate using Acoustic Technology instrument (Echo 550, LabCyte) containing reaction buffer (50 mM Tris-HCl (pH 8)), 0.01% Brij35, 1 mM EDTA, 1 mM DTT, 1 mM PMSF and 1% DMSO), 10 nM purified PRC2 complex and 0.05 mg/ml core histone H3 in a 5 μl volume. The reaction was mixed gently and then pre-incubated for 20 min at 30° C. The enzymatic reaction was initiated by adding 1 uM S-Adenosyl-L-[methyl-^3H]methionine and incubated for 1 hr at 30° C. After 1 hr, the reaction product was detected using a filter binding method and the amount of tritiated H3 core histone was quantitated using a scintillation counter. […] Key: A=<100 nM; B=>100 nM-<500 nM; and C=>500 nM.

[2] = test system: histone H3 Lys27 trimethylation in Pfeiffer cells expressing mutant EZH2 (A677G); assay: Tri-Methyl Histone H3 (Lys 27) sandwich ELISA in Pfeiffer cells; format: cell-based; settings: Homo sapiens, 96 hours incubation, read-out: IC50 (nM), Inhibition of EZH2-mediated Histone H3 Trimethylation
From the text: The Pfeiffer cell line was established from a […] from a patient having metastatic diffuse large B-cell lymphoma (DLBCL). This cell line expresses a mutant form of the EZH2 enzyme (A677G) that results in enhanced EZH2 activity leading to increased methylation of histone H3 Lys27. Increased trimethylation of histone H3 Lys27 is believed to be implicated in tumorgenesis and poor clinical prognosis in lymphomas (McCabe et al., (2012) Nature 492:108-112).
Inhibition of PRC2-mediated histone H3 methylation by compounds of Formula (I) was measured by ELISA using a Tri-Methyl Histone H3 (Lys 27) Sandwich ELISA Kit (Cell Signaling Tech #7866C) in accordance with the manufacturer's instructions. Briefly, Pfeiffer cells were cultured in RPMI medium supplemented with 10% fetal bovine serum and 1% penicillin and 1% streptoncin in 96 well culture plates at 37° C. to a density of 8000 cells/90 μl/well and the cells were harvested. A series of 3-fold serial dilutions of each test compound of Formula (I) were prepared in RPMI medium and added to the cells at final concentrations ranging from 1 μM to 0.15 nM. The plates were incubated at 37° C. for 96 hours.
After incubation, the cells were pelleted by centrifugation in a pre-cooled 4° C. rotor at 1,100 rpm for 10 min and the supernatant was removed by aspiration. The cell pellet was resuspended in 55 μl of Lysis Buffer (0.4M HCl) and incubated on ice with periodic shaking for 30 minutes. The lysed cells were subjected to centrifugation at 4,200 rpm for 10 min at 4° C. and the supernatant containing acid-soluble proteins was collected and the remainder discarded. The acid-soluble proteins were brought to a neutral pH by the addition of 20 μl of Neutralization Buffer (1 M Sodium phosphate, dibasic (pH 12.5), 2.5 mM DTT and 1 mM PMSF) and the neutralized lysates were analyzed by ELISA.
A 65 μl aliquot of each cell lysate was added to a well of a microwell strip, the microwells were sealed using tape and incubated either at 37° C. for two hours or at 4° C. overnight. After incubation, the tape was removed at the microwells were washed four times using 200 μl of 1× Wash Buffer. To each washed microwell, a 100 μl aliquot of an anti-trimethyl histone H3 Lys27 Detection Antibody solution was added and the microwells were incubated at 37° C. for one hour. The Detection Antibody solution was removed by aspiration and the wells were washed four times each using 200 μl of 1× Wash Buffer.
A 100 μl aliquot of an HRP-linked secondary antibody was added to each well, the wells were sealed with tape and incubated at 37° C. for 30 min. The HRP-linked secondary antibody solution was removed by aspiration and the wells were washed four times using 200 μl of 1× Wash Buffer. A 100 μl aliquot of a TMB substrate was added to each well, the wells were sealed with tape and incubated at 37° C. for 10 min or 25° C. for 30 min. The reaction was stopped by the addition of 100 μl aliquot of a STOP solution and the plate was shaken briefly. The degree of histone H3 trimethylation was determined using a spectrophotometric readout by measuring the absorbance at 450 nm and then calculating the amount of trimethylated histone H3. A=≤100 nM; B=>100 nM-≤500 nM; C=>500 nM and N.D.=not determined.

[3] = test system: Karpas 422 cells expressing mutant EZH2 (Y641N); assay: Karpas 422 cell viability, CTG (Cell Titre Glo) assay; format: cell-based, human; settings: Day 4, 7 or 11 measured, time point of the table not stated, read-out: IC50 (nM), Inhibiting Proliferation of Cells Expressing an Activating Mutant Form of EZH2
Experimental: Karpas 422 cell line is a human B cell non-Hodgkin's lymphoma cell line established from a patient having DLBCL. This EZH2 heterozygotic cell line expresses a mutant form of EZH2 enzyme (Y641N) that increases histone H3 methylation and this mutation has been implicated in the tumorgenesis of lymphomas, such as DLBCL.
Karpas 422 cells (PHE cat no., 06101702) were cultured in RPMI medium supplemented with 20% fetal bovine serum and 1% penicillin/l % streptomycin and plated at a density of 1000 cells/90 μl/well in 96 well white assay plates. A dose response curve for compounds of the present invention was determined by adding a 10 μl aliquot of stock solutions of varying concentrations of compounds to the same medium in each well, over a concentration range of 10 μM using 3-fold dilutions to a final concentration of 1.5 nM. The plates were incubated at 37° C. for predetermined time periods, Day 4, Day 7, or Day 11, and the viability of the cells was measured using a CTG assay kit (Cell Titre Glo; Promega cat. no G7573) on Day 4 and Day 7 in accordance with the manufacturer's instructions.
For the viability assay for the Day 11 plates, the plates were subjected to centrifugation at 1100 rpm for five minutes on Day 7 and the supernatant was removed by aspiration. The cells were resuspended in 90 μl aliquot of the appropriate growth medium lacking the compound followed by addition of 10 μl of a 10× stock of the same compound at the same concentration. The viability of the Day 11 cells was measured using the CTG assay kit described above in accordance with the manufacturer's instructions. The IC50 values for each compound at each predetermined time point were calculated using Graph pad PRISM software and the results are shown in Table 15. A=≤250 nM; B=<250 nM-≤500 nM; and C=>500 nM.

Compound	IC50 [1]	IC50 [2]	IC50 ([3]; Homo sapiens, 96 h)	IC50 [3]
Cc1cc(-c2cnc(NCc3c(F)ccc4c3OCO4)n3cc(C#N)nc23)n(C)n1 [Example 228, 8-(1,3-dimethyl-1H-pyrazol-5-yl)-5-(((5-fluorobenzo[d][1,3]dioxol-4-yl)methyl)amino)imidazo[1,2-c]pyrimidine-2-carbonitrile]	100 to 500 nM	100 to 500 nM	≤ 250 nM	
[2H]C([2H])(Nc1ncc(-c2ccc(CN(C)C)cc2)c2nc(C#N)cn12)c1c(F)ccc2c1CCO2 [Example 165, 8-(4-((dimethylamino)methyl)phenyl)-5-(((5-fluoro-2,3-dihydrobenzofuran-4-yl)methyl-d2)amino)imidazo[1,2-c]pyrimidine-2-carbonitrile]		100 to 500 nM	≤ 250 nM	
Cc1cc(-c2cnc(NCc3c(F)ccc4occc34)n3cc(C#N)nc23)n(C)n1 [Example 28]	< 100 nM		250 to 500 nM	
Cc1nc(CN(C)C)ccc1-c1cnc(NCc2c(F)ccc3c2CCO3)n2cc(C#N)nc12 [Example 152]				≤ 250 nM
Cn1nc(C(=O)O)cc1-c1cnc(NCc2c(F)ccc3c2CCO3)n2cc(C#N)nc12 [Example 157, 5-(2-cyano-5-(((5-fluoro-2,3-dihydrobenzofuran-4-yl)methyl)amino)imidazo[1,2-c]pyrimidin-8-yl)-1-methyl-1H-pyrazole-3-carboxylic acid]		< 100 nM	≤ 250 nM	
CN(C)C(=O)c1cc(-c2cnc(NCc3c(F)ccc4c3CCO4)n3cc(C#N)nc23)n(C)n1 [Example 170, 5-(2-cyano-5-(((5-fluoro-2,3-dihydrobenzofuran-4-yl)methyl)amino)imidazo[1,2-c]pyrimidin-8-yl)-N,N,1-trimethyl-1H-pyrazole-3-carboxamide]				250 to 500 nM
Cc1cc(-c2cnc(NCc3c(F)ccc4c3CCO4)n3cc(C#N)nc23)ccn1 [Example 178, 5-(((5-fluoro-2,3-dihydrobenzofuran-4-yl)methyl)amino)-8-(2-methylpyridin-4-yl)imidazo[1,2-c]pyrimidine-2-carbonitrile]	100 to 500 nM	100 to 500 nM	≤ 250 nM	
N#Cc1cn2c(NCc3c(F)ccc4c3CCO4)ncc(-c3cnc(C4CC4)nc3)c2n1 [Example 70]	< 100 nM	< 100 nM	≤ 250 nM	
